According to patent US9198894B2, “Uses of 15-benzylidene-14-deoxy-11,12-didehydroandrographolide derivatives in the preparation of antineoplastic drugs” (Zhengzhou University, priority 2010, dated 2015):
Read-outs that look alike come from different tables or passages of the source. Marks after values point to notes of the source that are not given here.

Tests used:
[1] = test system: A549 human lung adenocarcinoma; assay: Colony formation assay, A549; assay type: cell-based
Description: (§1) 1) Cell lines: Cell lines of SGC-7901 human gastric cancer, A549 human lung adenocarcinoma and Hela human cervical carcinoma were purchased from the Type Culture Collection of the Chinese Academy of Sciences, Shanghai, China.
(§2) 3) Method: Colony formation assay was used. The cells were trypsinized to generate a single-cell suspension and seeded in a 6-well plate at a density of 100 cells/well, then drug-containing medium was added to the well to make the final concentration of compound to 0, 1.25, 2.50, 5.00, 7.50, 10.00 μmol/L, respectively. The experiments were performed in duplicate, and the cells were cultured at 37 in a humidified atmosphere with 5% CO2. Terminate cell culture when the clones can be seen in the culture plate, then remove the culture medium, and wash twice with PBS, fix the cells with methanol (5 ml/well) for 15 min and stain the cells with hematoxylin-eosin stain. The number of clones which comprised more than 50 cells was counted under a TS100-F-PH microscope (Nikon Company, Japan). Calculate relative colony formation ratio (%) and the IC50 values. Relative colony formation ratio (%)=(colony number of drug-administration well/colony number of control well)×100%.

[2] = test system: Hela human cervical carcinoma; assay: Colony formation assay, Hela; assay type: cell-based; settings: Hela
Description: as §1, §2

[3] = test system: SGC-7901 human gastric cancer; assay: Colony formation assay, SGC-7901; assay type: cell-based
Description: as §1, §2

[4] = test system: 5637 human urinary bladder cancer cells; assay: Wound healing (two-dimensional migration) assay, 5637; assay type: cell-based; settings: 5637, 10.00 μmol/l, 24 h (FIG. 1C)
Description: (§3) 1) Cell lines: Cell lines of 5637 human bladder carcinoma, Eca-109 human esophageal carcinoma, HT29 human colon cancer, SGC-7901 human gastric cancer, A549 human lung adenocarcinoma and PC-3 human prostate carcinoma were purchased from the Type Culture Collection of the Chinese Academy of Sciences, Shanghai, China.
(§4) 3) Methods: The cells were trypsinized to generate a single-cell suspension and seeded in 96-well plates (200 μl/well), and incubated with medium containing 10% fetal bovine serum at 37 in a humidified atmosphere with 5% CO2. Following a 24 h incubation, the cells were starved for an additional 12 h in low-serum media (1% FBS). The cultures of Eca-109, HT29, 5637, SGC-7901, A549 and PC-3 were then scratched away with a 200-μl plastic pipette tip and rinsed twice with PBS to remove wound-derived loose and dislodged cells. The cells were cultured in replaced medium without or with compounds at final concentrations of 0, 2.50, 5.00 and 10.00 μmol/L, respectively. At least seven randomly selected views along the scraped line in each well were photographed immediately and 24 h and 36 h after incubation using a digital camera at 50× magnification. The average scraped area in each well under each treatment condition was measured, and the percentage of inhibition against cell migration was calculated. % of inhibition=1−(A0−At)/(A′0−A′t)×100%, where, A0 and At are the areas of wound with compound treatment measured immediately and 24 or 36 h post-injury, respectively; A′0 and A′t are the areas of wound without compound treatment measured immediately and 24 or 36 h post-injury, respectively.

[5] = test system: SGC-7901 human gastric adenocarcinoma cells; assay: Wound healing (two-dimensional migration) assay, SGC-7901; assay type: cell-based; settings: SGC-7901, 10.00 μmol/l, 36 h (FIG. 1D)
Description: as §3
as §4, with “The cells were cultured in replaced medium without or with compounds at final concentrations of 0, 2.50, 5.00 and 10.00 μmol/L, respectively. At least seven randomly selected views along the scraped line in each well were photographed immediately and 24 h and 36 h after incubation using a digital camera at 50× magnification.” left out

[6] = test system: ECV304 human vascular endothelial cells; assay: Two-dimensional migration of ECV304 (wound healing); assay type: cell-based; settings: 10.00 μmol/L (FIG. 2A)
[7] = test system: Eca-109 human esophageal carcinoma cells; assay: Wound healing (two-dimensional migration) assay, Eca-109; assay type: cell-based; settings: Eca-109, 10.00 μmol/l, 24 h (FIG. 1A)
Description: as §3, §4

[8] = test system: A549 human lung carcinoma cells; assay: Wound healing (two-dimensional migration) assay, A549; assay type: cell-based; settings: A549, 10.00 μmol/l, 36 h (FIG. 1E)
Description: as §3, §4

[9] = test system: B16-F10 mouse melanoma cells; assay type: in vivo; settings: B16-F10, C57BL/6 mice; for Lung index / Nodule number (melanoma nodules in lungs): mean ± s, n = 5
Description: 1) Animals: A total of 20 C57BL/6 male mice of clean grade [Number of Animal License: SCXK (Xiang) 2009-0004], weighing 18-22 g, were purchased from Hunan Slca Jingda Experimental Animal Center Company, Ltd., China.
2) Cells: B16-F10 mouse melanoma cells were purchased from Nanjing KeyGen Biotech. Co. Ltd., China.
(§5) 4) Method: B16-F10 cells in logarithmic growth phase were trypsinized, then resuspended in RPMI1640 medium containing 10% fetal bovine serum and centrifuged at 1000 rpm for 5 min. The supernatant was removed and sterile PBS was added to prepare single-cell suspension (10^7/mL). The murine melanoma lung metastasis model was established in mice via caudal vein injection of B16-F10 cells (0.2 ml/mouse). Mice were randomly divided into 4 groups (n=5) according to body weight, and 24 h later they were administrated intragastrically (ig; 0.2 ml/10 g) once a day continuously for 24 d with vehicle (tumor control group), Cyc (30 mg/kg), compound 3 at 0.85 mmol/kg and 1.10 mmol/kg. Mice were weighed and blood was collected by removing the eyeball at 24 h after the last administration. Sacrificed the mice, removed the lung and counted the number of melanoma nodules in lungs of mice under an anatomical lens. Serum obtained after centrifugation at 3000 rpm for 20 min (3K30 refrigerated centrifuge, Sigma, USA) was conserved at −20° C. Levels of TNF-α and IL-1β in serum were measured by ELISA method, which were performed in accordance with the instructions of the kits.
Data were expressed as mean±SD and statistical analysis was performed by SPSS Statistics 17.0 using a one-way analysis of variance (ANOVA) followed by unpaired t-test. A value of P<0.05 was considered statistically significant. The inhibition ratio (IR %) of lung metastasis was calculated as follows: IR %=(Nc−Nt)/Nc×100%, where Nc is the average number of nodules in lung tissues of vehicle, and Nt is that of mice treated with drugs.

[10] = test system: TNF-α; assay type: in vivo, mouse; settings: C57BL/6 mice, mean ± s, n = 5
[11] = test system: IL-1β; assay type: in vivo, mouse; settings: C57BL/6 mice, mean ± s, n = 5
[12] = assay type: in vivo, mouse; settings: C57BL/6 mice, before vs 24 d after administration
Description: as §5

[13] = read-out: Inhibition against tumor cell colony formation IC50

C=C1CCC2C(C)(CO)C(O)CCC2(C)C1C=CC1=CC(=Cc2ccc(Cl)cc2)OC1=O (stereo not shown) [Compound 2, 15-p-chlorobenzylidene-14-deoxy-11,12-didehydro-andrographolide]
Inhibition of colony formation compared with andrographolide [1]: remarkably stronger than that of andrographolide
IC50 [1, 13]: 1420 nM
Inhibition of colony formation compared with andrographolide [2]: remarkably stronger than that of andrographolide
IC50 [2, 13]: 1380 nM
Inhibition of colony formation compared with andrographolide [3]: remarkably stronger than that of andrographolide
IC50 [3, 13]: 2100 nM
Inhibitory effect on two-dimensional migration [4]: much stronger than that of other tumor cells
Inhibitory effect on two-dimensional migration [5]: much stronger than that of other tumor cells
Inhibition of two-dimensional migration of ECV304 [6]: the most significant one

C=C1CCC2C(C)(COC(=O)c3cccnc3)C(OC(=O)c3cccnc3)CCC2(C)C1C=CC1=CC(=Cc2ccc(Cl)cc2)OC1=O (stereo not shown) [Compound 3, 15-p-chlorobenzylidene-14-deoxy-11,12-didehydro-3,19-dinicotinate andrographolide]
Inhibitory effect on two-dimensional migration [7]: much stronger than that of other tumor cells
Inhibitory effect on two-dimensional migration [8]: much stronger than that of other tumor cells
IR (%) of lung metastasis ([9]; 0.85 mmol/kg ig 24 d): 58.04%
IR (%) of lung metastasis ([9]; 0.85 mmol/kg ig 24 d, listed as compound 3): 58.04%
Lung index ([9]; 0.85 mmol/kg ig 24 d): 6.19 ± 0.76 mg/g
Nodule number (melanoma nodules in lungs) ([9]; 0.85 mmol/kg ig 24 d): 35.25 ± 14.45
IR (%) of lung metastasis ([9]; 1.10 mmol/kg ig 24 d): 65.18%
IR (%) of lung metastasis ([9]; 1.10 mmol/kg ig 24 d, listed as compound 3): 65.18%
Lung index ([9]; 1.10 mmol/kg ig 24 d): 6.39 ± 0.57 mg/g
Nodule number (melanoma nodules in lungs) ([9]; 1.10 mmol/kg ig 24 d): 29.25 ± 881**^∇
TNF-α in serum ([10]; 0.85 mmol/kg ig 24 d): 0.52 ± 5.90
TNF-α in serum ([10]; 1.10 mmol/kg ig 24 d): 11.11 ± 5.96
IL-1β in serum ([11]; 0.85 mmol/kg ig 24 d): 30.76 ± 3.25 pg/mL
IL-1β in serum ([11]; 1.10 mmol/kg ig 24 d): 17.86 ± 3.41 pg/mL
Average net increase in body weight ([12]; 0.85 mmol/kg ig): 1.64 g
Average net increase in body weight ([12]; 1.10 mmol/kg ig): 2.00 g
